In assay [1] the test system is CCD1079SK cells. The assay is described as follows: Production of SIRIUS cells: cluster formation and cell morphology of fibroblasts cultured with peptide (phase-contrast microscopy). Particulars: for cell morphology in the culture: days 1 to 6. Format: cell-based, human. The text has this:
SIRIUS cells were produced using the sample 1 obtained in Working Example 1. CCD1079SK cells (ATCC (registered trademark) CRL-2097), which are a fibroblast cell culture line derived from human skin tissue, were used as the sample cells. The details of the tests are as follows.
The CCD1079SK cells, which had been stored frozen, were inoculated to six culture dishes with a diameter of 60 mm (60 mm dishes) to provide a cell density of 3×10^5 cells/well. Specifically, the thawed CCD1079SK cells were first suspended in ordinary Dulbecco's modified Eagle's medium (DMEM medium) to produce a cell suspension having a cell density of 1.5×10^5 cells/mL and 2 mL of this cell suspension was introduced into the 60 mm dish. This DMEM medium contained 10% FBS, 100 units/mL of penicillin, and 100 μg/mL of streptomycin in ordinary DMEM (Wako Pure Chemical Industries, Ltd., Cat. No. 043-30085).
The CCD1079SK cells inoculated into the 60 mm dish were precultured for several hours (approximately 6 hours) in an incubator under conditions of 5% CO2 and 37° C.
After the preculture for several hours, the CCD1079SK cells were subjected to a main culture at one of the culture conditions indicated for examples 1 to 6 in Table 1. The specific culture conditions are given in the following. […]
The culture conditions according to example 5 are as follows: the stock solution of sample 1 is added, in an amount that provides a peptide concentration in the medium of 20 μM, to the DMEM medium (in the 60 mm dish) on which the CCD1079SK cells are being cultured, and culture is carried out under a temperature condition of 13° C. […]
Other than the culture temperature and the presence/absence of peptide addition, the same culture conditions were used in all of examples 1 to 6. Thus, in all of examples 1 to 6, culture was carried out in a 5% CO2 atmosphere using a DMEM medium with the same composition (same as that used in the preculture). In addition, in all of examples 1 to 6, culture exchange and peptide addition (addition of PBS (−) in the peptide-free groups) were carried out every two days after the start of the main culture.
Observation of the cell morphology using a phase-contrast microscope was carried out in each example on the 1st, 2nd, 3rd, 4th, 5th, 6th, 7th, 9th, 13th, 21st, 27th, and 34th days after the start of the main culture (cell culture in the presence of peptide). Among the images in FIG. 2, the micrographs given for example 3 are micrographs (images) showing cell aggregates (clusters) that were rarely identified when tests were independently repeated a plurality of times using the same conditions as in example 3.

Assay [2] concerns CCD1079SK cells. Nature of the assay: Evaluation of the state of undifferentiation of SIRIUS cells by cytoimmunostaining of undifferentiated marker genes. Format: cell-based, human. Conditions: sample 1 20 μM, 30° C., 3 days; fluorescent immunostaining. As for the experimental part: The state of undifferentiation of the SIRIUS cells (cells forming clusters) produced using the sample 1 obtained in example 1 was evaluated by cytoimmunostaining (fluorescent immunostaining) of the state of expression of undifferentiated marker genes (endogenous Oct3/4, Nanog, Sox2, TRA1-81, SSEA-3, and ALP), i.e., the state of expression of protein that is a gene product of these genes (this protein is also referred to as “undifferentiated marker protein” below). The details of the evaluation test are as follows.
The SIRIUS cells according to this working example were produced by culture under the same conditions as the culture conditions given in example 1 of Working Example 2 with the following exceptions: a cell culture chamber having 1 well per slide (culture area of 19 mm×44 mm) (also referred to as a slide chamber) was used as the culture chamber, 1.5×10^5 cells/well was used for the number of cells per well; and 1 mL was used for the amount of medium per well. The status of differentiation of the SIRIUS cells was evaluated by cytoimmunostaining as follows on the 3rd day after the start of the main culture (culture in the presence of peptide).
Fixing, a permeabilization treatment, and a blocking treatment were first carried out on the cells in each test group. Specifically, the medium was removed from the culture chamber (slide chamber) in each test group once the culture for 3 days in the presence of peptide had been completed and the cells in each slide chamber were washed with cold PBS. PBS containing 4 volume % paraformaldehyde (4% paraformaldehyde solution) was then added to the slide chamber and the cells were fixed by standing for 15 minutes on ice. After the prescribed time had elapsed, the 4% paraformaldehyde solution was removed and the cells in the slide chamber were washed with cold PBS.
PBS containing 0.25 volume % Triton (registered trademark) X-100 (0.25% Triton (registered trademark) X-100 solution) was then added to each slide chamber and a permeabilization treatment was carried out on the cell membrane by standing for 15 minutes on ice. After the prescribed time had elapsed, the 0.25% Triton (registered trademark) X-100 solution was removed and the cells in the slide chamber were washed with cold PBS.
PBS containing 1% BSA (1% BSA-containing PBS) was added to each slide chamber and a blocking treatment was carried out for 1 hour at room temperature. After the prescribed time had elapsed, the 1% BSA-containing PBS was removed and the cells in the slide chamber were washed with cold PBS.
The primary antibodies (primary antibody dilution)—obtained by the dilution at the prescribed ratio (dilution ratio shown in Table 2) with 0.1% BSA/PBS of primary antibody that recognized the particular undifferentiated marker protein—were respectively added to the slide chambers and standing was carried out overnight (approximately 16 to 18 hours) at 4° C. After the prescribed time had elapsed, the primary antibody dilution was removed and washing with cold PBS was performed.
Table 2 gives the undifferentiation markers used to evaluate the status of expression in this working example, the details for the primary antibody (product name, product number, immunized animal, antibody class) used to recognize the particular undifferentiated marker protein, and the dilution ratio for the primary antibody. Of the primary antibodies given in Table 2, the anti-Oct3/4 antibody was from Santa Cruz Biotechnology, Inc. and the anti-Nanog antibody, anti-Sox2 antibody, anti-TRA1-81 antibody, anti-SSEA-3 antibody, and anti-ALP antibody were from Abcam plc.
Secondary antibody (secondary antibody dilution)—obtained by the 1000× dilution with 0.1% BSA/PBS of a secondary antibody that detected the particular primary antibody—was added to the slide chamber and standing was carried out in the dark for 2 hours at room temperature. After the prescribed time had elapsed, the secondary antibody dilution was removed and washing with cold PBS was performed. […]

Where [3] appears, read: example 2: sample 1 20 μM, 37° C.

Regarding CKSKSRRSC [sample 1], the “time to formation of aggregates (clusters) of aggregated cells after the start of the main culture” value in the assay on CCD1079SK cells [1] (example 1: sample 1 20 μM, 30° C., 60 mm dish) was at most 3 days. Further, the “probability that at least 1 cluster was formed in the 60 mm dish within the 3rd day after the start of culture” value in the assay with CCD1079SK cells [1] (example 1 conditions: 20 μM, 30° C., 26 times in 27 tests) is reported as “at least 95%”. Moreover, the “number (frequency) of clusters formed per one 60 mm dish, average” value with CCD1079SK cells [1] (example 1 conditions: 20 μM, 30° C., within the 3rd day) is 3. Besides, in the assay on CCD1079SK cells [1] (setting [3]), the “formation of cell aggregates (clusters) within 3 days after the start of the main culture” value is on record as “did not form, or their formation frequency was very low” and the “persistence of the rarely observed clusters” value is “disappeared by the 34th day”. Moreover, the “cell morphology in the culture” value in the assay with CCD1079SK cells [1] (example 5: sample 1 20 μM, 13° C.) is listed as “very close to a dead cell morphology”. The “cell morphology in the culture” value in the assay on CCD1079SK cells [1] (example 6: sample 1 20 μM, 22° C.) is recorded as “very close to a dead cell morphology”. In the assay on CCD1079SK cells [2], the “expression of undifferentiated marker gene ALP by cells constituting the clusters” value is given as “strongly expressed”, the “expression of undifferentiated marker gene Nanog by cells constituting the clusters” value is “strongly expressed”, the “expression of undifferentiated marker gene Oct3/4 by cells constituting the clusters” value is “strongly expressed” and the “expression of undifferentiated marker gene SSEA-3 by cells constituting the clusters” value is reported as “strongly expressed”. Further, in the assay on CCD1079SK cells [2], the “expression of undifferentiated marker gene Sox2 by cells constituting the clusters” value is reported as “strongly expressed” and the “expression of undifferentiated marker gene TRA1-81 by cells constituting the clusters” value was “strongly expressed”.

The record behind these values is US10138469B2, “Synthetic peptide and use thereof” (Toagosei Co., Ltd., priority 2014, dated 2018).
